Reference: ChEMBL document CHEMBL5725438, “Tetrazole derivatives and their use as potassium channel modulators” (2017)

Biological target: Intermediate conductance calcium-activated potassium channel protein 4 (Homo sapiens, UniProt O15554)
Test: Inhibition Assay: Human HEK293 cells over-expressing human IK are grown in culture medium (DMEM supplemented with 10% foetal bovine serum), in polystyrene culture flasks ([…]) in a humidified atmosphere of 5% CO2 in air, at 37° C. Cell confluence should be 80-90% on day of plating. Cells are rinsed with 4 mL of PBS (phosphate buffered saline) and incubated 2 min with 1 mL of Trypsin-EDTA. After addition of 25 mL of culture medium cells are re-suspended by trituration with a 25 mL pipette.The cells are seeded at a density of 3×10^6 cells/mL (25 μL/well) in black-walled, clear bottom, 384-well plates pre-treated with 0.01 g/L poly-D-lysin (20 μL/well for ≧30 min). Plated cells were allowed to proliferate for 24 h before loading with dye.BTC-AM ([…], Invitrogen) is added 25.5 μl DMSO. The BTC-AM stock solution (2 mM) is diluted to a final concentration of 2 μM in Cl+ free assay buffer (in mM: 140 Na+-gluconate, 2.5 K+-gluconate, 6 Ca2+-gluconate, 1 Mg2+ gluconate, 5 glucose, 10 HEPES, pH 7.3) containing 2 μM ouabain, 2 mM amaranth and 1 mM tartrazine.The culture medium is aspirated from the wells, and 25 μl of the BTC-AM loading solution are added to each well. The cells are incubated at 37° C. for 60 min.After the loading period, the Tl+-sensitive BTC fluorescence signal is measured over time using a FLIPR.

Sequence of Intermediate conductance calcium-activated potassium channel protein 4 (O15554 whole entry): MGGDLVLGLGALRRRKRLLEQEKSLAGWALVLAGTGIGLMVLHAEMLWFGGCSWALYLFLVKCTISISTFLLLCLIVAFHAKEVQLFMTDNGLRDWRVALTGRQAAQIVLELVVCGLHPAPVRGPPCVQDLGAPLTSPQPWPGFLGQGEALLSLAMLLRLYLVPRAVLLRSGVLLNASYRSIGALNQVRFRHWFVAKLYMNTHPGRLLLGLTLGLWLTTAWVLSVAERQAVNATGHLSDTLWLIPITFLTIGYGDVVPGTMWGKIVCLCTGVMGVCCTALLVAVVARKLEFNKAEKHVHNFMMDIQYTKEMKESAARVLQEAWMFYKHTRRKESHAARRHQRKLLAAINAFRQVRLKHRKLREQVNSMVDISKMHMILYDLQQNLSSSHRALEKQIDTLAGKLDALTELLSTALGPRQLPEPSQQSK

IC50: 680 nM
SMILES: COCCNc1ccccc1-c1ccccc1-c1nnnn1-c1ccccc1F
